Laboratory results: patent US7501529B2, “7-Ethynyl-2,4,9-trithiaadamantane and related methods” (The University of Akron, priority 2003, dated 2009)

How the values were obtained:
[1] = comparison value, source not stated; cited from earlier work
[2] = 1H NMR titration, stability constant of the inclusion complex (Benesi-Hildebrand); assay type: physicochemical
Description: The equilibrium constant of the formation of the inclusion complex provides a relative measurement of the thermodynamic driving force for the guest and host binding. NMR Titration was performed by measuring chemical shift changes as a function of the relative concentrations of the host and guest. The changes of the chemical shifts were measured for the H-3 and H-5 peaks of the host and Ha and Hb of the guest in the following scheme, which represents the inclusion complex formation of 7-hydroxycarbonyl-2,4,9-trithiaadamantane with β-cyclodextrin:
The data in Table 1 were also used to calculate the stability constant of the 7-hydroxycarbonyl-2,4,9-trithiaadamantane/β-cyclodextrin inclusion complex by applying the Benesi-Hildebrand equation having the formula: 1/Δδi=(1/KΔδc)(1/Hi)+1/Δδc where the Δδi represents the observed chemical shift difference between the free guest and complexed guest, Hi represents the total host concentration, and Δδc represents the guest chemical shift difference between a completely complexed state and completely free state. In order to use Benesi-Hildebrand equation, the host molecule must be present in excess. The stability constant was determined from simultaneous fits of three chemical shift data sets. The stability constant of 7-hydroxycarbonyl-2,4,9-trithiaadamantane/β-cyclodextrin in water was thus measured to be 1550 M^−1 (logK=3.19). […]

[3] = Solubility in water / D2O, observed during 1H NMR experiments; assay type: physicochemical
Text: The formation of inclusion complex between 7-hydroxycarbonyl-2,4,9-trithiaadamantane and β-cyclodextrin was evident in the 1H NMR experiments. […] Thus, a 1:1 mixture of 7-hydroxycarbonyl-2,4,9-trithiaadamantane and β-cyclodextrin (3.5×10^−3 M) formed a clear solution in D2O in an NMR sampling tube. At the low concentration limit, this change in the solubility of 7-hydroxycarbonyl-2,4,9-trithiaadamantane in water is attributed to the molecular interactions between water insoluble 7-hydroxycarbonyl-2,4,9-trithiaadamantane and water soluble β-cyclodextrin. […] Similar phenomena in cyclodextrin inclusion complexes have been observed previously. Without being bound by theory, these spectral changes were attributed at least in part to the dynamic exchanges between uncomplexed species and the intimately included 7-hydroxycarbonyl-2,4,9-trithiaadamantane in β-cyclodextrin in aqueous solutions. […] The simultaneous observation of changes in the chemical shift of the β-cyclodextrin at H-3 and H-5 also indicated the binding interaction was dominated by the inclusion of the 7-hydroxycarbonyl-2,4,9-trithiaadamantane guest inside the host β-cyclodextrin cavity.

| association (stability) constant of the inclusion complex with β-cyclodextrin ([2]; 1:1 complex, in water (D2O), room temperature, 1H NMR titration) [M⁻¹] | logK of the stability constant of the β-cyclodextrin inclusion complex ([2]; in water) | solubility in water ([3]; water, without β-cyclodextrin) | change of solubility in water with β-cyclodextrin present ([3]; β-cyclodextrin present, 1:1 mixture (3.5×10^−3 M) formed a clear solution in D2O) | Compound | stability constant K of the β-cyclodextrin inclusion complex (comparison) [1] [M⁻¹] |
| --- | --- | --- | --- | --- | --- |
|  |  |  |  | O=C(O)C12CC3CC(CC(C3)C1)C2 [1-adamantane carboxylic acid] | 188 |
| 1550 | 3.19 | dissolves only slightly | increased visibly | O=C(O)C12CC3SC(C1)SC(C2)S3 [7-hydroxycarbonyl-2,4,9-trithiaadamantane] |  |
